Assay results from patent US6599894B1, “Amidinobenzylamine derivatives and their use as thrombin inhibitors” (AstŕaZeneca AB, priority 1999, dated 2003).

Assay: Test E: determination of thrombin time ex vivo (bioavailability of active inhibitor after prodrug administration)
Conditions: conscious rat, estimated from thrombin time or ecarin clotting time in plasma
From the text: Determination of Thrombin Time Ex Vivo
The inhibition of thrombin after oral or parenteral administration of the compounds of formula I, dissolved in ethanol:Solutol™:water (5:5:90), were examined in conscious rats which, one or two days prior to the experiment, were equipped with a catheter for blood sampling from the carotid artery. On the experimental day blood samples were withdrawn at fixed times after the administration of the compound into plastic tubes containing 1 part sodium citrate solution (0.13 mol per L) and 9 parts of blood. The tubes were centrifuged to obtain platelet poor plasma. The plasma was used for determination of thrombin time or ecarin clotting time (ECT) as described below.
The citrated rat plasma, 100 μL, was diluted with a saline solution, 0.9%, 100 μL, and plasma coagulation was started by the addition of human thrombin (T 6769, Sigma Chem Co, USA or Hematologic Technologies) in a buffer solution, pH 7.4, 100 μL, or ecarin (Pentapharm). The clotting time was measured in an automatic device (KC 10, Amelung, Germany).
[(AUCpd/dose)/(AUCactive,parenteral/dose]×100

Row | Compound | oral and/or parenteral bioavailability as the corresponding active inhibitor (free amidine)
1 | CON=C(N)c1ccc(CNC(=O)C2CCN2C(=O)C(O)c2cccc(N(C)C)c2)cc1 [Example 2, Ph(3-N(Me)2)-(R)- or-(S)CH(OH)—CO-Aze-Pab(OMe)] | exhibit oral and/or parenteral bioavailability in the rat
2 | Ph(3-Cl,5-NMe2)-(R) or -(S)CH(OH)C(O)-Aze-Pab(O-i-Pr) [Example 15] | exhibit oral and/or parenteral bioavailability in the rat
3 | CON=C(N)c1ccc(CNC(=O)C2CCN2C(=O)C(O)c2cccc(N3CCCC3=O)c2)cc1.O=C(O)C(F)(F)F (single isomer, unassigned) [Example 19, Ph(3-(1-Pyrrolidin-2-one))-(R) or-(S)CH(OH)C(O)-Aze-Pab(OMe)×TFA] | exhibit oral and/or parenteral bioavailability in the rat
4 | Ph(3-Cl,5-NMe2)-(R) or -(S)CH(OH)C(O)-Aze-Pab(O-Et) [Example 13] | exhibit oral and/or parenteral bioavailability in the rat
5 | CON=C(N)c1ccc(CNC(=O)C2CCN2C(=O)C(O)c2cc(Cl)cc(N(C)C(C)=O)c2)cc1.O=C(O)C(F)(F)F (single isomer, unassigned) [Example 18, Ph(3-Cl,5-NMeAc)-(R) or-(S)CH(OH)C(O)-Aze-Pab(OMe)×TFA] | exhibit oral and/or parenteral bioavailability in the rat
6 | CON=C(N)c1ccc(CNC(=O)[C@@H]2CCN2C(=O)C(O)c2cc(Cl)cc(N(C)C)c2)cc1 (single isomer, unassigned) [Example 12, Ph(3-Cl,5-NMe2)-(R) or-(S)CH(OH)C(O)-Aze-Pab(OMe)] | exhibit oral and/or parenteral bioavailability in the rat
